This data set can be described thus: Rat oral pharmacokinetics (plasma analyzed for eicosapentaenoic acid). The conditions noted are these: analyte EPA in plasma, oral gavage 40 mg/kg as aqueous solution in 0.5% carboxymethyl cellulose, Sprague-Dawley rats, mean of 6 rats; for AUC (0-24): 0-24 h.

Usually Cmax stands for the maximum level reached in the sampled fluid or tissue. The Tmax is the time at which the peak concentration occurs.

Take `CC/C=C\C/C=C\C/C=C\C/C=C\C/C=C\CCCC(=O)O.CC/C=C\C/C=C\C/C=C\C/C=C\C/C=C\CCCC(=O)O.NCCN` [Ethylene diamine di-eicosapentaenoate, Ethane-1,2-diaminium di[5Z,8Z,11Z,14Z,17Z)-icosa-5,8,11,14,17-pentaenoate]]: the “AUC (0-24)” value was found to be 275.29 µg·h/mL, the Cmax was determined as 18.37 µg/mL and the Tmax turned out to be 2.0 h.

Take `C1CNCCN1.CC/C=C\C/C=C\C/C=C\C/C=C\C/C=C\CCCC(=O)O.CC/C=C\C/C=C\C/C=C\C/C=C\C/C=C\CCCC(=O)O` [Piperazine di-eicosapentaenoate, Bis[5Z,8Z,11Z,14Z,17Z)-icosa-5,8,11,14,17-pentaenoate]piperazine salt]: the “AUC (0-24)” value came to 134.85 µg·h/mL, the Cmax was found to be 28.22 µg/mL and the time to peak (Tmax) came to 1.0 h.

Source of the values: US20140011814A1, “DIAMINE AND MEGLUMINE SALT FORMS OF FATTY ACIDS” (THETIS PHARMACEUTICALS LLC, priority 2012, published 2014).
